Reference: patent publication US20150094354A1, “METHOD FOR TREATING CELL PROLIFERATIVE DISORDER BY INHIBITING C1GALT1 EXPRESSION” (National Taiwan University, priority 2013, published 2015)

Key:
Type in all cases: cell-based, human
[1] = test system: HA22T cells; assay: Trypan blue exclusion cell viability assay; conditions: up to 72 hours
Protocol: Cells (4×10^4) are seeded in each well of 6-well plates with DMEM containing 10% FBS. Viable cells are analyzed by Trypan blue exclusion assay at 0, 24, 48, and 72 hours. Cell proliferation is evaluated by immunostaining with anti-Ki67 antibody (1:1000; Vector Laboratories). For cell-cycle analysis, 1×10^6 cells are stained with propidium iodide (Sigma) for 30 minutes. The percentages of cells in G1, S, and G2M phases are analyzed by flow cytometry (Becton Dickinson).
FIGS. 9A-9B are schematic diagrams illustrating the effects of C1GALT1 on the cell viability of hepatocellular carcinoma cells in vitro in accordance with an embodiment of the present invention. Cell viability of HA22T, PLC5, Sk-Hep1, and HCC36 cells was analyzed by Trypan blue exclusion assays at different time points for 72 hours. The results were standardized by the cell number at 0 hour. Data are represented as means±SD from three independent experiments. *, P<0.05; **, P<0.01.

[2] = test system: C1GALT1; assay: Knockdown of C1GALT1 expression confirmed by Western blotting / Q-PCR; conditions: siRNA
Excerpt: According to an embodiment of the present invention, in the experiment in vitro, two siRNA oligonucleotides against C1GALT1, 5′-[…] GG-3′ (SEQ ID NO: 1) and 5′-[…]-3′ (SEQ ID NO: 2), used as the C1GALT1 inhibition substance and a negative control siRNA of medium GC are synthesized by Invitrogen company.
According to another embodiment of the present invention, in the experiment in vivo, the pLKO/C1GALT1-shRNA plasmid containing the sequence, 5′-CCCAGCCTAATG TTCTTCATA-3′(SEQ ID NO: 13), against C1GALT1 is used as the C1GALT1 inhibition substance. The pLKO/C1GALT1-shRNA plasmid and non-targeting pLKO plasmids (as a negative control) are purchased from National RNAi Core Facility (Academia Sinica, Taipei, Taiwan). The short hairpin RNA (shRNA, 20 nM) plasmids are transfected with Lipofectamine® 2000 and selected with 500 ng/mL of puromycin for 10 days. […] Subsequently, 7×10^6 of hepatocellular carcinoma cells containing the pLKO/C1GALT1-shRNA plasmid and the non-targeting pLKO plasmid are subcutaneously injected into severe combined immunodeficient (SCID) mice (n=4 for each group). Tumor volumes are monitored for […]. Excised tumors are weighed and lysed for Western blotting and immunohistochemistry.
Equal amounts of protein samples are mixed with 5× sample buffer and boiled for 5 minutes, separated on SDS-polyacrylamide gels, and then transferred to PVDF membrane. The membranes are blocked in 5% BSA for 1 hour at room temperature, and incubated with primary antibodies overnight at 4° C. Anti-phosphotyrosine (4G10) antibody (Millipore, Billerica, Mass.), antibodies against C1GALT1, GAPDH, IGF-IR, MET pY 1234/5, IGF-IR pY1135/1136, p-AKT, p-ERK1/2, and ERK1/2 antibody (BD Pharmingen, San Jose, Calif.) are used. The blots are then incubated with secondary antibody conjugated with horseradish peroxidase and immunoreacted bands are detected by ECL reagents and exposed on x-ray film.
Total RNA is isolated using TRIzol reagent (Invitrogen) according to the manufacturer's protocol. Two micrograms of total RNA is used in reverse transcription reaction using the Superscript III First-Strand cDNA Synthesis Kit (Invitrogen). The cDNA is subjected to quantitative real-time RT-PCR (Q-PCR). Quantitative PCR System Mx3000P (Stratagene, La Jolla, Calif.) is used for quantitative real-time RT-PCR. Reactions are performed in a 20 μl volume with 2 μl cDNA, 400 nM of sense and anti-sense primers, and 10 μl Brilliant®SYBR®Green Q-PCR Master Mix (Stratagene). Primer sets are designed as the following: Primers for C1GALT1 are 5′-[…]-3′ (SEQ ID NO: 5) and 5′-[…]-3′(SEQ ID NO: 6). Primers for GAPDH are 5 ‘-[…]-3’ (SEQ ID NO: 8) and 5′-[…]-3′ (SEQ ID NO: 7). The relative quantity of gene expression normalized to GAPDH is analyzed using MxPro Software (Stratagene). […]

[3] = test system: O-glycans on glycoproteins; assay: Western blotting with biotinylated VVA of glycoproteins in hepatocellular carcinoma cells
Protocol: Vicia villosa agglutinin (VVA)- and peanut agglutinin (PNA) lectin-conjugated agarose beads, fluorescein isothiocyanate (FITC)-, and biotinylated VVA were purchased from Vector Laboratories. Recombinant EGF, HGF, IGF-I, and protein deglycosylation kits were purchased from Sigma. Protein deglycosylation is carried out using an Enzymatic Protein Deglycosylation Kit (Sigma). Briefly, cell lysates are treated with neuraminidase or PNGase F at 37° C. for 1 hour. For lectin blotting, […] of cell lysate is separated by an 8% SDS-PAGE, transferred to polyvinylidene difluoride membrane (Millipore), and blotted with biotinylated VVA (1:10,000). For lectin pull-down assay, cell lysates (0.3 mg) are incubated with or without deglycosylation enzymes and then applied to VVA- or PNA-conjugated agarose beads at 4° C. for 16 hours. The pulled down proteins are analyzed by Western blotting.
HA22T and PLC5 cells express high levels of C1GALT1, while Sk-Hep1 and HCC36 cells express low levels of C1GALT1, as shown in FIG. 6B. […] Compared with pcDNA3.1 empty plasmid (mock), overexpression of C1GALT1 in Sk-Hep1 and HCC36 cells transfected with C1GALT1/pcDNA3.1 plasmid (C1GALT1) is shown in FIG. 7B Immunofluorescence microscopy further confirmed the knockdown and overexpression of C1GALT1 in hepatocellular carcinoma cells and its subcellular localization in the Golgi apparatus (not shown). […] Proteins with evident changes in VVA binding are indicated by arrows. p140 changes in all tested cell lines are indicated by red arrows.

Row | Substance | cell viability [1] | C1GALT1 expression ([2]; HA22T cells) | C1GALT1 expression ([2]; PLC5 cells) | binding of VVA to glycoproteins ([3]; HA22T cells) | binding of VVA to glycoproteins ([3]; PLC5 cells)
1 | C1GALT1 si-1: siRNA oligonucleotide against C1GALT1, presumably SEQ ID NO: 1, UUAGUAUACGUUCAGGUAAGGUAGG (chemistry not given here) | significantly suppressed | knockdown of C1GALT1 | knockdown of C1GALT1 | enhanced | enhanced
2 | C1GALT1 si-2: siRNA oligonucleotide against C1GALT1, presumably SEQ ID NO: 2, UUAUGUUGGCUAGAAUCUGCAUUGA (chemistry not given here) | significantly suppressed | knockdown of C1GALT1 | knockdown of C1GALT1 | enhanced | enhanced
